{"source": "patent US9999690B2", "about": "“Labeled compounds and methods of imaging, diagnosing cartilage disorders and diseases, and monitoring cartilage health using labeled and unlabeled compounds” (Perosphere Inc., priority 2013, dated 2018)", "key": {"[1]": {"experiment": "Tissue distribution of radioactivity by Quantitative Whole-Body Autoradiography (QWBA), Group 4", "assay_type": "in vivo", "details": "rat, single IV 2 mg/kg", "experimental": "(§1) A study was conducted to determine the pharmacokinetics, rates and routes of excretion with mass baseline and tissue distribution of radioactivity, after a single intravenous dose administration of formula XIII (also referred to as [^14C]DAP) was administered to the rats by tail vein intravenous injection at a\n(§2) The study was conducted on 19 male rats divided into 4 groups. The first group of 6 rats was used for blood collection (Group 1); the second group of 4 rats was used for urine, feces, cage rinses and wipes and carcasses collection (Group 2); the third group of 4 rats was used for expired air collection (Group 3); the fourth group of 5 rats was used for terminal blood/serum and tissue distribution by Quantitative Whole-Body Autoradiography (QWBA) (Group 4).\nFor Group 4, formula XIII (QWBA was run at 1, 8, 12, 24 and 72 hours post dose. After terminal blood collection, each euthanized animal was frozen in a hexane/dry ice bath and embedded in a 2% carboxymethylcellulose matrix according to MPI Research SOP ADME-112. The embedded carcasses were sectioned according to MPI Research SOP ADME-113 on a Leica CM3600 Cyromacrotome set to maintain −10 to −30° C. At least four fortified quality control standards of known radioactive concentration were placed into the frozen block prior to sectioning and used for section thickness quality control. The quality control standards were sectioned under the same conditions as the specimen. The intrasection and intersection variation of collected sections were determined by analyzing the quality control standards. Section variation must be less than 20% for quantitative analysis. Sections that were approximately 40μm thick were taken in the sagittal plane. Appropriate sections selected at various levels of interest in the block were collected to encompass the following tissues, organs, and biological fluids, where possible: adrenal gland, bladder (urinary) and contents (urine), blood (cardiac), bone, bone marrow, brain, eye, fat (brown), fat (white), heart, kidney, large intestine/cecum and contents, liver, lung, muscle, pancreas, prostate, salivary glands, skin, small intestine and contents, spleen, stomach and contents, testes, thymus, thyroid, mesenteric lymph nodes, and epididymis. A set of sections were mounted, exposed to phosphor imaging screens and scanned using the Storm 860 image acquisition system according to MPI Research SOP ADME-112. Quantification, relative to the calibration standards, were performed by image densitometry using MCID™ image analysis software according to MPI Research SOP ADME-114. A standard curve was constructed from the integrated response (MDC/mm2) and the nominal concentrations of the [^14C]Glucose calibration standards. Relative error should be less than 0.5 for each point on the curve. The concentrations of radioactivity were expressed as μCi/g and were converted to μg or ng-equivalents of DAP per gram of sample (μg- or ng-eq/g) using the specific activity of administered [^14C]DAP dose formulation. A lower limit of quantification (LLOQ) was applied to the data. The LLOQ was determined using the radioactive concentration of the lowest calibration standard used to generate a calibration curve divided by the specific activity of the dose formulation (μCi/ug). Artifacts, such as those produced by dislodged contents of the alimentary canal, were excluded from analysis during image analysis."}, "[2]": {"experiment": "Rat blood PK samples after intravenous injection, Group 1", "assay_type": "in vivo", "details": "rat Group 1, IV injection, in ng-eq/g", "experimental": "as §1, §2"}}, "note": "Several values for one entry are separate records, joined by “and”; a condition that tells them apart may be missing. Identical values can stand only once."}
{"smiles": "[2H]C1([2H])N(CCCNC(=O)[C@@H](N)CCCNC(=N)N)C([2H])([2H])C([2H])([2H])N(CCCNC(=O)[C@@H](N)CCCNC(=N)N)C1([2H])[2H]", "note": "[formula XIII]", "values": [{"measurement": "Concentration of Radioactivity in Small intestine", "setting": "[1]; 24 Hours", "result": "5090 ng Equivalents [^14C]DAP/g"}, {"measurement": "Concentration of Radioactivity in Spinal cord", "setting": "[1]; 24 Hours", "result": "BLQ (Below limit of quantitation (<172 ng equivalents [^14C]PER977/g))"}, {"measurement": "Concentration of Radioactivity in Stomach contents", "setting": "[1]; 24 Hours", "result": "BLQ (Below limit of quantitation (<172 ng equivalents [^14C]PER977/g))"}, {"measurement": "Concentration of Radioactivity in Thymus", "setting": "[1]; 24 Hours", "result": "11451 ng Equivalents [^14C]DAP/g"}, {"measurement": "Concentration of Radioactivity in Urinary bladder", "setting": "[1]; 24 Hours", "result": "606 ng Equivalents [^14C]DAP/g"}, {"measurement": "Concentration of Radioactivity in Urine", "setting": "[1]; 24 Hours", "result": "4553 ng Equivalents [^14C]DAP/g"}, {"measurement": "Concentration of Radioactivity in Blood", "setting": "[1]; 72 Hours", "result": "BLQ (Below limit of quantitation (<172 ng equivalents [^14C]PER977/g))"}, {"measurement": "Concentration of Radioactivity in Bone", "setting": "[1]; 72 Hours", "result": "BLQ (Below limit of quantitation (<172 ng equivalents [^14C]PER977/g))"}, {"measurement": "Concentration of Radioactivity in Bone marrow", "setting": "[1]; 72 Hours", "result": "841 ng Equivalents [^14C]DAP/g"}, {"measurement": "Concentration of Radioactivity in Cerebellum", "setting": "[1]; 72 Hours", "result": "BLQ (Below limit of quantitation (<172 ng equivalents [^14C]PER977/g))"}, {"measurement": "Concentration of Radioactivity in Epididymis", "setting": "[1]; 72 Hours", "result": "BLQ (Below limit of quantitation (<172 ng equivalents [^14C]PER977/g))"}, {"measurement": "Concentration of Radioactivity in Kidney", "setting": "[1]; 72 Hours", "result": "18515 ng Equivalents [^14C]DAP/g"}, {"measurement": "Concentration of Radioactivity in Kidney (cortex)", "setting": "[1]; 72 Hours", "result": "15748 ng Equivalents [^14C]DAP/g"}, {"measurement": "Concentration of Radioactivity in Kidney (medulla)", "setting": "[1]; 72 Hours", "result": "556 ng Equivalents [^14C]DAP/g"}, {"measurement": "Concentration of Radioactivity in Large intestinal contents", "setting": "[1]; 72 Hours", "result": "824 ng Equivalents [^14C]DAP/g"}, {"measurement": "Concentration of Radioactivity in Medulla", "setting": "[1]; 72 Hours", "result": "BLQ (Below limit of quantitation (<172 ng equivalents [^14C]PER977/g))"}, {"measurement": "Concentration of Radioactivity in Muscle", "setting": "[1]; 72 Hours", "result": "BLQ (Below limit of quantitation (<172 ng equivalents [^14C]PER977/g))"}, {"measurement": "Concentration of Radioactivity in Seminal vesicles", "setting": "[1]; 72 Hours", "result": "BLQ (Below limit of quantitation (<172 ng equivalents [^14C]PER977/g))"}, {"measurement": "Concentration of Radioactivity in Small intestine", "setting": "[1]; 72 Hours", "result": "1597 ng Equivalents [^14C]DAP/g"}, {"measurement": "Concentration of Radioactivity in Spinal cord", "setting": "[1]; 72 Hours", "result": "BLQ (Below limit of quantitation (<172 ng equivalents [^14C]PER977/g))"}, {"measurement": "Concentration of Radioactivity in Stomach contents", "setting": "[1]; 72 Hours", "result": "BLQ (Below limit of quantitation (<172 ng equivalents [^14C]PER977/g))"}, {"measurement": "Concentration of Radioactivity in Testes", "setting": "[1]; 72 Hours", "result": "BLQ (Below limit of quantitation (<172 ng equivalents [^14C]PER977/g))"}, {"measurement": "Concentration of Radioactivity in Thymus", "setting": "[1]; 72 Hours", "result": "8365 ng Equivalents [^14C]DAP/g"}, {"measurement": "Concentration of Radioactivity in Urinary bladder", "setting": "[1]; 72 Hours", "result": "283 ng Equivalents [^14C]DAP/g"}, {"measurement": "Concentration of Radioactivity in Urine", "setting": "[1]; 72 Hours", "result": "3866 ng Equivalents [^14C]DAP/g"}, {"measurement": "Rat Blood PK Samples", "setting": "[2]; 0.083 hrs, Mean", "result": 12494.00}, {"measurement": "Rat Blood PK Samples", "setting": "[2]; 0.083 hrs, individual rats", "result": "12283.00 and 12343.00 and 12856.00"}, {"measurement": "Rat Blood PK Samples", "setting": "[2]; 0.250 hrs, Mean", "result": 7636.87}, {"measurement": "Rat Blood PK Samples", "setting": "[2]; 0.250 hrs, individual rats", "result": "6989.90 and 8433.50 and 7487.20"}, {"measurement": "Rat Blood PK Samples", "setting": "[2]; 0.5 hrs, Mean", "result": 4715.77}, {"measurement": "Rat Blood PK Samples", "setting": "[2]; 0.5 hrs, individual rats", "result": "4890.10 and 4595.70 and 4661.50"}, {"measurement": "Rat Blood PK Samples", "setting": "[2]; 1 hrs, Mean", "result": 1639.20}, {"measurement": "Rat Blood PK Samples", "setting": "[2]; 1 hrs, individual rats", "result": "1277.80 and 2173.10 and 1466.70"}, {"measurement": "Rat Blood PK Samples", "setting": "[2]; 2 hrs, Mean", "result": 497.04}, {"measurement": "Rat Blood PK Samples", "setting": "[2]; 2 hrs, individual rats", "result": "513.73 and 503.14 and 474.26"}, {"measurement": "Rat Blood PK Samples", "setting": "[2]; 4 hrs, Mean", "result": 251.03}, {"measurement": "Rat Blood PK Samples", "setting": "[2]; 4 hrs, individual rats", "result": "244.30 and 269.75 and 239.03"}, {"measurement": "Rat Blood PK Samples", "setting": "[2]; 8 hrs, Mean", "result": 187.88}, {"measurement": "Rat Blood PK Samples", "setting": "[2]; 8 hrs, individual rats", "result": "207.32 and 187.12 and 169.19"}, {"measurement": "Rat Blood PK Samples", "setting": "[2]; 12 hrs, Mean", "result": 145.76}, {"measurement": "Rat Blood PK Samples", "setting": "[2]; 12 hrs, individual rats", "result": "149.71 and 148.64 and 138.94"}, {"measurement": "Rat Blood PK Samples", "setting": "[2]; 24 hrs, Mean", "result": 99.45}, {"measurement": "Rat Blood PK Samples", "setting": "[2]; 24 hrs, individual rats", "result": "105.64 and 108.29 and 84.43"}, {"measurement": "Rat Blood PK Samples", "setting": "[2]; 48 hrs, Mean", "result": 50.56}, {"measurement": "Rat Blood PK Samples", "setting": "[2]; 48 hrs, individual rats", "result": "49.28 and 52.03 and 50.38"}, {"measurement": "Rat Blood PK Samples", "setting": "[2]; 72 hrs, Mean", "result": 24.63}, {"measurement": "Rat Blood PK Samples", "setting": "[2]; 72 hrs, individual rats", "result": "23.54 and 33.09 and 17.27"}, {"measurement": "Rat Blood PK Samples", "setting": "[2]; 96 hrs, Mean", "result": 17.23}, {"measurement": "Rat Blood PK Samples", "setting": "[2]; 96 hrs, individual rats", "result": "17.39 and 16.69 and 17.60"}]}
